Experimental data from patent US20090075915A1, “6,11-BICYCLOLIDES: BRIDGED BIARYL MACROLIDE DERIVATIVES” (priority 2007, published 2009).
Converted amounts (≈) assume the structure as drawn. “Also recorded” adds a separate entry of the source. Read-outs that look alike come from different tables or passages of the source.

What was measured:
[1] = system: S. aureus 7662; assay: Systemic mouse protection model, S. aureus 7662; assay type: in vivo; conditions: Staphylococcus aureus, S. aureus 7662, iv
[2] = system: MRSA 7662; assay: Mouse skin and soft tissue infection, MRSA 7662; assay type: in vivo; conditions: Staphylococcus aureus
[3] = system: H influenzae 33929; assay: MIC, H influenzae 33929; assay type: cell-based, Haemophilus influenzae; conditions: Haemophilus influenzae, 33929; Table 5
Method: (§1) Susceptibility tests can be used to quantitatively measure the in vitro activity of an antimicrobial agent against a given bacterial isolate. Compounds are tested for in vitro antibacterial activity by a micro-dilution method. Minimal Inhibitory Concentration (MIC) is determined in 96 well microtiter plates utilizing the appropriate broth medium for the observed bacterial isolates. Antimicrobial agents are serially diluted (2-fold) in DMSO to produce a concentration range from about 64 μg/ml to about 0.03 μg/ml. The diluted compounds (2 μl/well) are then transferred into sterile, uninoculated medium (0.2 mL) by use of a 96 fixed tip-pipetting station. The inoculum for each bacterial strain is standardized to approximately 5×10^5 CFU/mL by optical comparison to a 0.5 McFarland turbidity standard. The plates are inoculated with 10 μl/well of adjusted bacterial inoculum. The 96 well plates are covered and incubated at 35±2° C. for 24 hours in ambient air environment. Following incubation, plate wells are visually examined by Optical Density measurement for the presence of growth (turbidity). The lowest concentration of an antimicrobial agent at which no visible growth occurs is defined as the MIC.
(§2) All in vitro testing follows the guidelines described in the Approved Standards M7-A7 protocol, published by the Clinical Laboratory Standards Institute (CLSI).

[4] = Tissue accumulation at the site of infection (plasma, skin, skin abscess); conditions: for AUC(0-inf) / AUC(0-t) / Cmax / Kp / Tmax / half-life: mouse, po, 50 mg/kg
[5] = system: MRSA 7662; assay: MIC, MRSA 7662; assay type: cell-based; conditions: Staphylococcus aureus
Method: as §1, §2

[6] = system: S. aureus Smith; assay: MIC, S. aureus Smith; assay type: cell-based, Staphylococcus aureus
Method: as §1, §2

[7] = system: S. aureus Smith; assay: Systemic mouse protection model (MPT), S. aureus Smith; assay type: in vivo; conditions: Staphylococcus aureus
[8] = system: H influenzae 49247; assay: MIC, H influenzae 49247; assay type: cell-based, Haemophilus influenzae; conditions: Haemophilus influenzae, 49247; Table 5
Method: as §1, §2

[9] = system: MRSA 33591; assay: MIC, MRSA 33591; assay type: cell-based, Staphylococcus aureus; conditions: Staphylococcus aureus, MRSA; Table 5
Method: as §1, §2

[10] = system: S. pneumoniae 7701; assay: MIC, S. pneumoniae 7701; assay type: cell-based
Method: as §1, §2

[11] = Oral pharmacokinetics in dog; assay type: in vivo; conditions: for Cmax / Tmax / half-life / AUC(0-t): in vivo; for Cmax / Tmax / half-life / AUC(0-t) / CLF / F / Vd: oral, Dog; for AUC(0-t): read-out: AUC0-24
[12] = system: H. influenzae 1435; assay: MIC, H. influenzae 1435; assay type: cell-based, Haemophilus influenzae; design: unit not given beside the values
Method: as §1, §2

[13] = Oral pharmacokinetics in rat; assay type: in vivo; conditions: 10 mg/kg
[14] = system: H. influenzae 3643; assay: MIC, H. influenzae 3643; assay type: cell-based, Haemophilus influenzae; design: unit not given beside the values
Method: as §1, §2

[15] = system: H. influenzae 1435; assay: Rat lung infection model (RLI), H. influenzae 1435; assay type: in vivo; conditions: Haemophilus influenzae, read-out: ED50 (2Log Red for RLI)
[16] = system: H. influenzae S1280; assay: MIC, H. influenzae S1280; assay type: cell-based, Haemophilus influenzae; design: unit not given beside the values
Method: as §1, §2

[17] = system: H. influenzae 3643; assay: Rat lung infection model (RLI), H. influenzae 3643; assay type: in vivo; conditions: Haemophilus influenzae, read-out: ED50 (2Log Red for RLI)
[18] = system: H. influenzae S1280; assay: Rat lung infection model (RLI), H. influenzae S1280; assay type: in vivo; conditions: Haemophilus influenzae, read-out: ED50 (2Log Red for RLI)
[19] = system: S. pneumoniae 7701; assay: Mouse protection test model (MPT), S. pneumoniae 7701; assay type: in vivo; conditions: Streptococcus pneumoniae
[20] = Oral pharmacokinetics in rat plasma and lung tissue; assay type: in vivo; conditions: 10 mg/kg PO; for AUC(0-t): read-out: AUC0-24; for Kp: lung/plasma, po, 10 mg/kg
[21] = Oral pharmacokinetics in mice; assay type: in vivo; conditions: 15 mg/kg
[22] = In vitro blood incubation of amino acid prodrugs, mouse blood; assay type: in vitro ADME, Mice; conditions: 2 μM prodrug
Method: (§3) Compounds 5, 6, 7 and 8 (2 μM) were incubated with fresh human blood (conducted in duplicate), rat and mouse blood. Reaction was started by the addition of compound 5, and was stopped at predefined time points (0, 5, 10, 15, 30, 45 and 60 minutes) by removing one aliquot from the incubation mixture (0.1 mL per aliquot) and adding it to 3-fold volume of stop reagent (ice-cold acetonitrile, 0.3 mL). Precipitated protein was removed by centrifugation. Prodrug compound 5-8 and parent compound 1 or 3 concentrations in the supernatant were analyzed by LC/MS/MS.

[23] = In vitro blood incubation of amino acid prodrugs, rat blood; assay type: in vitro ADME; conditions: 2 μM prodrug
Method: as §3

[24] = In vitro blood incubation of amino acid prodrugs, fresh human blood; assay type: in vitro ADME; conditions: 2 μM prodrug
Method: as §3

[25] = Rat PK of amino acid prodrug after IV/PO administration; assay type: in vivo
[26] = plasma, 10 mg/kg IV, prodrug itself measured

CCC(=O)/N=C1\[C@H](C)C[C@@]2(C)OC/C(=N/OCc3ccc(-c4nc(N)cs4)cn3)CO[C@H]([C@H]1C)[C@](C)(O)[C@@H](CC)OC(=O)[C@@](C)(F)C(=O)[C@H](C)[C@H]2O[C@@H]1O[C@H](C)C[C@H](N(C)C)[C@H]1O [Compound 1]
ED50 [1]: 3.6 mg/kg | ED50 ([2]; MRSA 7662, iv): 12 mg/kg | ED50 ([2]; MRSA 7662, po): 29 mg/kg | MIC [3]: 4 µg/mL (≈ 4.42 µM) | Accumulation at the site of infection ([4]; infected skin tissue of mice): highly accumulated at the site of infections in infected skin tissue of mice | AUC(0-inf) ([4]; infected skin abscess): 617000 ng·h/mL | AUC(0-t) ([4]; infected skin abscess): 257000 ng·h/mL | Cmax ([4]; infected skin abscess): 9030 ng/mL | Kp ([4]; infected skin abscess): 25.2 | Tmax ([4]; infected skin abscess): 3 h | half-life ([4]; infected skin abscess): 52.4 h | AUC(0-inf) ([4]; plasma): 24500 ng·h/mL | AUC(0-t) ([4]; plasma): 24400 ng·h/mL | Cmax ([4]; plasma): 5120 ng/mL | Tmax ([4]; plasma): 0.5 h | half-life ([4]; plasma): 5.2 h | AUC(0-inf) ([4]; uninfected skin): 66600 ng·h/mL | AUC(0-t) ([4]; uninfected skin): 54600 ng·h/mL | Cmax ([4]; uninfected skin): 3800 ng/mL | Kp ([4]; uninfected skin): 2.72 | Tmax ([4]; uninfected skin): 3 h | half-life ([4]; uninfected skin): 17.9 h | MIC ([5]; S. aureus 7662, table of systemic mouse protection model, read-out: MIC): 1000 µg/mL (≈ 1100 µM) | MIC ([5]; Table 5, read-out: MIC MRSA 7662): 1 µg/mL (≈ 1.1 µM) | MIC ([6]; Staphylococcus aureus, table of systemic mouse protection model, read-out: MIC): 130 µg/mL (≈ 144 µM) | ED50 ([7]; systemic mouse protection model, iv): 4.8 mg/kg | ED50 ([7]; systemic mouse protection model, po): 13.3 mg/kg | MIC [8]: 4 µg/mL (≈ 4.42 µM) | MIC [9]: 2 µg/mL (≈ 2.21 µM)

CC[C@H]1OC(=O)[C@H](C)C(=O)[C@H](C)[C@@H](O[C@@H]2O[C@H](C)C[C@H](N(C)C)[C@H]2O)[C@@]2(C)C[C@@H](C)/C(=N\C(C)=O)[C@H](C)[C@@H](OC/C(=N\OCc3ccc(-c4ccno4)nc3)CO2)[C@]1(C)O [Compound 4]
MIC [10]: <=0.06 | Animal pharmacokinetics properties in dogs ([11]; dogs): low clearance, excellent oral absorption (bioavailability) and AUC | Cmax ([11]; 5 mg/kg): 2470 ng/mL | Tmax ([11]; 5 mg/kg): 1.3 h | half-life ([11]; 5 mg/kg): 7.3 h | AUC(0-t) ([11]; 5 mg/kg): 32600 ng·h/mL | Cmax ([11]; 10 mg/kg): 5040 ng/mL | Tmax ([11]; 10 mg/kg): 6 h | half-life ([11]; 10 mg/kg): 15.8 h | AUC(0-t) ([11]; 10 mg/kg): 84400 ng·h/mL | CLF ([11]; 5 mg/kg): 1.67 mL/min/kg | F ([11]; 5 mg/kg): 71% | Vd ([11]; 5 mg/kg): 1.0 L/kg | CLF ([11]; 10 mg/kg): 1.67 mL/min/kg | F ([11]; 10 mg/kg): 100% | Vd ([11]; 10 mg/kg): 1.54 L/kg | MIC [12]: 4 | CLF [13]: 10.7 mL/min/kg | F [13]: 87% | Vd [13]: 1.97 L/kg | Cmax ([13]; plasma): 2540 ng/mL | Tmax ([13]; plasma): 1.7 h | half-life ([13]; plasma): 2.1 h | AUC(0-t) ([13]; plasma, read-out: AUC0-24): 13900 ng·h/mL | MIC [14]: 16 | MIC [3]: 4 µg/mL (≈ 4.75 µM) | ED50 [15]: 33 mg/kg | MIC [16]: 8 | ED50 [17]: 64 mg/kg | MIC ([6]; table of animal models of infection): 0.25 | ED50 ([7]; MPT): 9 mg/kg | ED50 [18]: 46 mg/kg | ED50 [19]: 9 mg/kg | MIC [8]: 4 µg/mL (≈ 4.75 µM) | Cmax ([20]; Lung): 19000 ± 80 ng/mL | Tmax ([20]; Lung): 2.33 ± 1.15 h | half-life ([20]; Lung): 2.51 ± 0.1 h | AUC(0-t) ([20]; Lung): 110000 ± 12900 ng·h/mL | Cmax ([20]; Plasma): 2540 ± 80 ng/mL | Tmax ([20]; Plasma): 1.67 ± 1.15 h | half-life ([20]; Plasma): 2.06 ± 0.45 h | AUC(0-t) ([20]; Plasma): 13900 ± 2810 ng·h/mL | Kp ([20]; read-out: AUC Lung/Plasma): 8 ± 0.9 | Kp ([20]; read-out: Cmax Lung/plasma): 7.5 ± 1 | CLF [21]: 26.7 mL/min/kg | F [21]: 100% | Vd [21]: 6.8 L/kg | Cmax ([21]; mouse, in vivo): 2430 ng/mL | Tmax ([21]; mouse, in vivo): 0.5 h | half-life ([21]; mouse, in vivo): 2.4 h | AUC(0-t) ([21]; mouse, in vivo, read-out: AUC0-24): 9800 ng·h/mL

CCC(=O)/N=C1\[C@H](C)C[C@@]2(C)OC/C(=N/OCc3ccc(-c4nc(NC(=O)[C@@H](N)CC(C)C)cs4)cn3)CO[C@H]([C@H]1C)[C@](C)(O)[C@@H](CC)OC(=O)[C@@](C)(F)C(=O)[C@H](C)[C@H]2O[C@@H]1O[C@H](C)C[C@H](N(C)C)[C@H]1O [Compound 6]
% remaining after 60 min, Mice [22]: 5.6% | % remaining after 60 min, Rat [23]: 9.3% | % remaining after 60 min, Human [24]: 8.3% | ClF ([25]; 10 mg/kg IV, prodrug itself measured): 788 mL/min/kg | Prodrug in plasma after oral administration ([25]; 10 mg/kg PO, prodrug itself, 10 mg/kg): No prodrug was detected in the plasma; also recorded: None detected in plasma via oral route- | Conversion to the parent amino derivative (Compound 1) ([25]; after oral (po) and IV administration): rapidly converted to the parent amino derivative | AUC(0-inf) [25, 26]: 210 ng·h/mL | Cmax [25, 26]: 310 ng/mL | Tmax [25, 26]: 4.8 min | Vd [25, 26]: 13.3 L/kg | half-life [25, 26]: 0.2 h
